From PubChem BioAssay AID330 (DTP/NCI, 2004)
Where “and” joins values, the source holds several entries; their conditions need not be identical. Equal entries are not always repeated. Toxic doses and inconclusive results are not listed. How the source made its calls: active means survival T/C of 150% or more; inactive means T/C below 125% in these data.

System: P388 leukemia ip, CD2F1 mice, survival T/C
Assay: NCI In Vivo Anticancer Drug Screen. Data for tumor model P388 Leukemia (intraperitoneal) in CD2F1 (CDF1) mice
Settings: endpoint: median survival time, higher = longer survival
Method in brief: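 Mice carrying the transplanted tumor received test compound or vehicle. Survival was recorded in each group, and the value is the treated-group measurement divided by that of the vehicle-treated control group.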

[1] = dose: 60.0 mg/kg/injection, schedule: Q01DX005 (ip), vehicle: Klucel (hydroxypropylcellulose) (HPC)
[2] = dose: 120.0 mg/kg/injection, schedule: Q01DX005 (ip), vehicle: Klucel (hydroxypropylcellulose) (HPC)
[3] = dose: 240.0 mg/kg/injection, schedule: Q01DX005 (ip), vehicle: Klucel (hydroxypropylcellulose) (HPC)
[4] = dose: 100.0 mg/kg/injection, schedule: Q01DX009 (ip), vehicle: saline with Tween-80
[5] = dose: 200.0 mg/kg/injection, schedule: Q01DX009 (ip), vehicle: saline with Tween-80
[6] = dose: 50.0 mg/kg/injection, schedule: Q01DX005 (ip), vehicle: Klucel (hydroxypropylcellulose) (HPC)
[7] = dose: 100.0 mg/kg/injection, schedule: Q01DX005 (ip), vehicle: Klucel (hydroxypropylcellulose) (HPC)
[8] = dose: 200.0 mg/kg/injection, schedule: Q01DX005 (ip), vehicle: Klucel (hydroxypropylcellulose) (HPC)
[9] = dose: 25.0 mg/kg/injection, schedule: Q01DX009 (ip), vehicle: saline with Tween-80
[10] = dose: 50.0 mg/kg/injection, schedule: Q01DX009 (ip), vehicle: saline with Tween-80
[11] = dose: 60.0 mg/kg/injection, schedule: Q01DX005 (ip), vehicle: saline with Tween-80
[12] = dose: 120.0 mg/kg/injection, schedule: Q01DX005 (ip), vehicle: saline with Tween-80
[13] = dose: 240.0 mg/kg/injection, schedule: Q01DX005 (ip), vehicle: saline with Tween-80
[14] = dose: 12.5 mg/kg/injection, schedule: Q01DX009 (ip), vehicle: saline with Tween-80

Measured: T/C

FC(F)(F)C1(C(F)(F)F)O[Te]2(OC(C(F)(F)F)(C(F)(F)F)c3ccccc32)c2ccccc21
inactive: dose: 80.0 mg/kg/injection, schedule: Q04DX002 (ip), vehicle: Klucel (hydroxypropylcellulose) (HPC) 96 % of control | dose: 160.0 mg/kg/injection, schedule: Q04DX002 (ip), vehicle: Klucel (hydroxypropylcellulose) (HPC) 102 % of control | dose: 320.0 mg/kg/injection, schedule: Q04DX002 (ip), vehicle: Klucel (hydroxypropylcellulose) (HPC) 105 % of control

C=C1C(=O)OC2C(OC(C)=O)C1C(OC(=O)C(C)CC)[C@]1(C)C(=O)C=C[C@H]1[C@@H]2C (stereo not given in full)
inactive: dose: 0.78 mg/kg/injection, schedule: Q01DX005 (ip), vehicle: Klucel (hydroxypropylcellulose) (HPC) 97 % of control | dose: 1.56 mg/kg/injection, schedule: Q01DX005 (ip), vehicle: Klucel (hydroxypropylcellulose) (HPC) 101 % of control and 113 % of control | dose: 3.12 mg/kg/injection, schedule: Q01DX005 (ip), vehicle: Klucel (hydroxypropylcellulose) (HPC) 111 % of control | dose: 6.25 mg/kg/injection, schedule: Q01DX005 (ip), vehicle: Klucel (hydroxypropylcellulose) (HPC) 116 % of control and 122 % of control | dose: 12.5 mg/kg/injection, schedule: Q01DX005 (ip), vehicle: Klucel (hydroxypropylcellulose) (HPC) 99 % of control and 102 % of control

CCc1ncc(C(C)(O)c2ccccc2)n1Cc1ccccc1 (stereo not given)
inactive: [1] 100 % of control | [2] 102 % of control | [3] 99 % of control

Cc1ccccc1C(C)(C#N)Nc1ccccc1 (stereo not given)
inactive: [4] 100 % of control | [5] 113 % of control | dose: 400.0 mg/kg/injection, schedule: Q01DX009 (ip), vehicle: saline with Tween-80 100 % of control

CC(C)CC(NCCC#N)C(=O)O (stereo not given)
inactive: [6] 105 % of control | [7] 105 % of control | [8] 108 % of control

CS(C)=NC(=Nc1ccc(Cl)cc1)c1ccccc1
inactive: [9] 95 % of control | [10] 106 % of control

Cc1ccc2c(c1)-c1[nH]c3ccccc3c1CS2
inactive: dose: 100.0 mg/kg/injection, schedule: Q04DX003 (ip), vehicle: Klucel (hydroxypropylcellulose) (HPC) 104 % of control | dose: 200.0 mg/kg/injection, schedule: Q04DX003 (ip), vehicle: Klucel (hydroxypropylcellulose) (HPC) 115 % of control

Cc1cccc(Cl)c1NC(=O)Nc1cccc(C#N)c1
inactive: [11] 93 % of control | [12] 89 % of control | [13] 98 % of control

CC/C(=N/NS(=O)(=O)c1ccc(C)cc1)c1ccc(Cl)cc1
inactive: dose: 50.0 mg/kg/injection, schedule: Q01DX009 (ip), vehicle: saline 97 % of control | dose: 100.0 mg/kg/injection, schedule: Q01DX009 (ip), vehicle: saline 92 % of control | dose: 200.0 mg/kg/injection, schedule: Q01DX009 (ip), vehicle: saline 99 % of control

Clc1[nH]nc2ccccc12
inactive: dose: 6.25 mg/kg/injection, schedule: Q01DX009 (ip), vehicle: saline with Tween-80 95 % of control | [14] 100 % of control | dose: 12.5 mg/kg/injection, schedule: Q04DX003 (ip), vehicle: saline with Tween-80 100 % of control | [9] 86 % of control | dose: 25.0 mg/kg/injection, schedule: Q04DX003 (ip), vehicle: saline with Tween-80 100 % of control | dose: 50.0 mg/kg/injection, schedule: Q04DX003 (ip), vehicle: saline with Tween-80 100 % of control

CC(C)=CC(O)C/C(C)=C/CC/C(C)=C/CCC1(C)C(CCCO)/C(=C(/C)C=O)CCC1(C)O (stereo not given)
inactive: dose: 25.0 mg/kg/injection, schedule: Q01DX005 (ip), vehicle: Klucel (hydroxypropylcellulose) (HPC) 106 % of control | [6] 106 % of control | [7] 119 % of control | [8] 116 % of control

C/C=C/C1OC(=O)C=C1Sc1ccccc1 (stereo not given)
inactive: dose: 50.0 mg/kg/injection, schedule: Q01DX005 (ip), vehicle: saline with Tween-80 114 % of control | dose: 100.0 mg/kg/injection, schedule: Q01DX005 (ip), vehicle: saline with Tween-80 117 % of control | dose: 200.0 mg/kg/injection, schedule: Q01DX005 (ip), vehicle: saline with Tween-80 114 % of control

CC(=O)Nc1ccc(NC(=S)NC(=O)c2ccccc2)cc1
inactive: [10] 107 % of control | [4] 100 % of control | [5] 95 % of control

N#CC1CC=CCN1CCc1ccccc1 (stereo not given)
inactive: dose: 12.5 mg/kg/injection, schedule: Q01DX005 (ip), vehicle: other 101 % of control | dose: 25.0 mg/kg/injection, schedule: Q01DX005 (ip), vehicle: other 101 % of control | dose: 50.0 mg/kg/injection, schedule: Q01DX005 (ip), vehicle: other 111 % of control | dose: 50.0 mg/kg/injection, schedule: Q01DX005 (ip), vehicle: saline + Tween-80 + alcohol 116 % of control

Cc1cc(Nc2cc(=O)[nH]c(=O)[nH]2)ccc1N
inactive: [11] 97 % of control | [12] 97 % of control | [13] 93 % of control

N/C(CC(=O)Nc1ccc(F)cc1)=N\O
inactive: [11] 108 % of control | [12] 102 % of control | [13] 100 % of control

COc1ccc(C(=O)C(Br)C(Br)C(=O)O)cc1 (stereo not given)
inactive: [14] 114 % of control | [9] 114 % of control | [10] 107 % of control and 121 % of control

COc1ccc2c3c1OC1C(OC)(OC)C=CC4(Cl)[C@@H](C2)N(C)CC[C@]314 (stereo not given in full)
inactive: [1] 96 % of control | [2] 96 % of control | [3] 102 % of control

Nc1nc(SCc2ccccn2)c2[nH]cnc2n1
inactive: dose: 66.0 mg/kg/injection, schedule: Q04DX003 (ip), vehicle: Klucel (hydroxypropylcellulose) (HPC) 122 % of control

COc1cc(CC(O)c2cc(OC)c(OC)c(OC)c2)cc(OC)c1OC (stereo not given)
inactive: dose: 31.25 mg/kg/injection, schedule: Q01DX009 (ip), vehicle: saline + Tween-80 + alcohol 102 % of control | dose: 62.5 mg/kg/injection, schedule: Q01DX009 (ip), vehicle: saline + Tween-80 + alcohol 102 % of control | dose: 125.0 mg/kg/injection, schedule: Q01DX009 (ip), vehicle: saline + Tween-80 + alcohol 100 % of control | dose: 250.0 mg/kg/injection, schedule: Q01DX009 (ip), vehicle: saline + Tween-80 + alcohol 91 % of control

Cn1cnc([N+](=O)[O-])c1S(=O)(=O)NCN1CCOCC1
inactive: dose: 6.25 mg/kg/injection, schedule: Q01DX009 (ip), vehicle: Klucel (hydroxypropylcellulose) (HPC) 116 % of control | dose: 12.5 mg/kg/injection, schedule: Q01DX009 (ip), vehicle: Klucel (hydroxypropylcellulose) (HPC) 119 % of control

c1ccc2c(SCCCCCCCCCCCSc3c4ccccc4nc4ccccc34)c3ccccc3nc2c1
inactive: [1] 106 % of control | [2] 101 % of control | [3] 90 % of control

c1ccc2c(Nc3nccs3)c3ccccc3nc2c1
inactive: dose: 12.5 mg/kg/injection, schedule: Q04DX002 (ip), vehicle: distilled water + Tween-80 96 % of control | dose: 25.0 mg/kg/injection, schedule: Q04DX002 (ip), vehicle: distilled water + Tween-80 96 % of control | dose: 50.0 mg/kg/injection, schedule: Q04DX002 (ip), vehicle: distilled water + Tween-80 88 % of control | dose: 100.0 mg/kg/injection, schedule: Q04DX002 (ip), vehicle: distilled water + Tween-80 94 % of control | dose: 200.0 mg/kg/injection, schedule: Q04DX002 (ip), vehicle: distilled water + Tween-80 98 % of control | dose: 400.0 mg/kg/injection, schedule: Q04DX002 (ip), vehicle: distilled water + Tween-80 103 % of control

N#CCCSC(=S)N1CCCCC1
inactive: dose: 25.0 mg/kg/injection, schedule: Q01DX009 (ip), vehicle: Klucel (hydroxypropylcellulose) (HPC) 104 % of control | dose: 50.0 mg/kg/injection, schedule: Q01DX009 (ip), vehicle: Klucel (hydroxypropylcellulose) (HPC) 104 % of control and 87 % of control | dose: 100.0 mg/kg/injection, schedule: Q01DX009 (ip), vehicle: Klucel (hydroxypropylcellulose) (HPC) 98 % of control and 101 % of control | dose: 200.0 mg/kg/injection, schedule: Q01DX009 (ip), vehicle: Klucel (hydroxypropylcellulose) (HPC) 90 % of control and 93 % of control | dose: 400.0 mg/kg/injection, schedule: Q01DX009 (ip), vehicle: Klucel (hydroxypropylcellulose) (HPC) 101 % of control
